Patent US8188143B2, “Pharmaceutical composition useful as acetylcholinesterase inhibitors” (Council of Scientific and Industrial Research, priority 2006, dated 2012)
Entries after “also recorded” stand apart in the source; their conditions may differ. Like-named read-outs stand apart in the source and are kept apart here.

What was measured:
[1] = test system: Scopolamine induced deficit in passive avoidance test in mice; assay: Single trial passive avoidance test, scopolamine induced deficit (in vivo); settings: for In Vivo (passive avoidance test, significance of TLT increase): scopolamine induced deficit, oral for 3 days; for In Vivo (passive avoidance test, significance of TLT increase) / effectiveness in passive avoidance test (in vivo), in words: mice; for TLT on 2nd trial as compared to 1st trial after scopolamine: mice pretreated po x 3 days (100 mg/kg FIG. 1a; 50 mg/kg FIG. 1b), scopolamine 5 min prior to 1st trial; for effectiveness in passive avoidance test (in vivo), in words: scopolamine induced memory deficit
Method: Single trial passive avoidance is widely used as experimental test to assess learning memory functions in rodents. Scopolamine induced impairment in passive avoidance (in vivo) and inhibition of acetylcholinesterase (in vitro) in rodents are commonly employed and screening test to predict potential of an acetylcholinesterase inhibitor as cognitive enhancer (anti-dementic) drug.
Passive Avoidance Test (In Vivo):
The study was conducted in adult Swiss male mice of 3-4 months (wt. 20-25 g) were kept in standard housing condition with 12 h light and dark cycle. The food and water were available ad libitum.
The mice were subjected to single trial passive avoidance test as described by Brioni.
The passive avoidance test was studied by a computerized shuttle box (Columbus Instruments, Ohio, USA) provided with a software program PACS 30. The shuttle box is comprised of two compartments. An automated door was used to isolate the compartments. After an exploration period of 30 s for acclimatization the animal was subjected to a trial of 270 seconds. Each mouse was placed in the bright compartment and on transfer into the dark compartment it was given an electric shock (0.5 mA for 5 s) through floor grid. The transfer of mice from the bright to dark compartment was recorded as transfer latency time (TLT) in seconds. TLT was recorded in control and treated groups (1st Trial, acquisition) and then after 24 h (2nd Trial, retention). An increase in the TLT on 2nd Trial (retention) as compared to 1st Trial (acquisition) was taken as the criterion for successful learning and memory (cognitive activity).
Scopolamine Induced Deficit (Dementia)
Scopolamine, a muscarinic antagonist known to produce impairment in cognitive functions (dementia) in human as well as in experimental animals, was used to produce deficit (no significant increase on 2nd trial) in passive avoidance learning. Scopolamine was administered 5 min prior to 1st trial. Reversal of scopolamine induced deficit i.e. significant increase in 2nd trial by test substance indicates potential anti-dementia activity. […].
The test substance Columbianetin was administered orally in dose of 100 m/kg (1% aqueous suspension in gum acacia) for 3 days. The treated animals were subjected to 1st trial after 60 min of 3rd dose of test substance. Scopolamine was administered 5 min prior to 1st trial in test group.
The control group received 1 ml/kg of vehicle (1% aqueous suspension in gum acacia) orally for 3 days. Among the control mice half (n=5) received scopolamine 5 min prior to 1st trial (Control—dementia) and the remaining half were subjected to passive avoidance test (Control—trained).
Level of p value<0.05 indicates statistically significant difference.
Mean values and standard error (S.E.) of mean were calculated for TLT and specific activity of AChE in the different regions of brain samples of each group. The significance of difference between the values of AChE activity and TLT of two groups was determined by one-way ANOVA test that followed by Dunnett's test.

[2] = biological target: T1, Acetylcholinesterase (AChE) (Rattus norvegicus, UniProt P37136); assay: Acetylcholinesterase (AChE) assay in brain (in vitro), Ellman method; assay type: biochemical
T1 construct: Aliquots of this supernatant was diluted in the ratio of 1:10 and used as a source of enzyme for the assay; from tissue; host or cells: whole brain of adult male SD rats; 100,000 x g supernatant of a 10% homogenate with Triton X-100
T1 sequence (P37136 32-614): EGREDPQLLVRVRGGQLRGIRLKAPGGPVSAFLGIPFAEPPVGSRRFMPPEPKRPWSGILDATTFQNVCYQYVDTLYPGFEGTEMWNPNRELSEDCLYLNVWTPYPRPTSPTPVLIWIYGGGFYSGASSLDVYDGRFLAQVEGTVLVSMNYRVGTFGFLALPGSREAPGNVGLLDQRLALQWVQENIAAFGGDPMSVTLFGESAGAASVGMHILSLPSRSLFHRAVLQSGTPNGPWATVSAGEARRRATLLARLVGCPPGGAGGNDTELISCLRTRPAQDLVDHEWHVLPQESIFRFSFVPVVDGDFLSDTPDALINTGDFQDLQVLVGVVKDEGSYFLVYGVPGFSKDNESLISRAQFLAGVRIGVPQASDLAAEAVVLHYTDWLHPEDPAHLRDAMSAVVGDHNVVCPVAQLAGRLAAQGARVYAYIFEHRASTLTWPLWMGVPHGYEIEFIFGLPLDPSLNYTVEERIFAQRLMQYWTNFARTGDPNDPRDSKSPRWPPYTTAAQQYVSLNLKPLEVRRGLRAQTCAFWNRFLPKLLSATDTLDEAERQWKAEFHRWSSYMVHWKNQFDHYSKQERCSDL
Method: Acetylcholinesterase (AChE) Assay in Brain (In Vitro)
The study was conducted in adult SD male rats (200-250 g). The rats were perfused under mild ether anesthesia through heart with ice cooled normal saline (0.9% NaCl) to reduce blood-borne cholinesterase from the brain. After perfusion the whole brain was taken out. A 10% (w/v) homogenate of brain was prepared first by homogenizing in an Ultra-Turrax T25 homogenizer at a speed of 9500 rpm thrice giving intervals for few seconds in between the runs, with sodium phosphate buffer (30 mmol/lit, pH 7.0). Sodium phosphate buffer was taken in a volume half to the final volume required for 10% homogenate.
1% Triton X-100 (1% w/v in 30 mmol/lit. sodium phosphate buffer, pH 7.0) is then added in a volume to make the final volume for 10% homogenate, slowly while stirring the homogenate on ice. The homogenate was centrifuged at 100,000×g at 4° C. in a Beckman Ultracentrifuge (LE 80) using a fixed angle rotor (80 Ti) for 60 min. Supernatant was collected and stored at 4° C. Aliquots of this supernatant was diluted in the ratio of 1:10 and used as a source of enzyme for the assay.
The assay of AChE was performed according to method described by Ellman et al. A kinetic profile of the enzyme activity was studied spectrophotometrically at 412 nm at an interval of 15 s. The assay for each sample was run in duplicate and each experiment was performed thrice. The specific activity of AChE is expressed in μmoles/min/mg of protein. The test substance (dissolved in DMSO) was incubated with enzyme source in concentration of 100 μg/1 ml of reaction mixture for 30 min at 37° C. prior to obtain kinetic profile of AChE activity. The AChE inhibitory activity was calculated on the basis of % decrease change from control values.
Protein was estimated in the brain samples by modified Lowry's method. Bovine serum albumin (BSA) was used as standard in the concentration of 1 mg/ml. was estimated in the range of 0.01-0.1 mg/ml. […]

[3] = test system: Scopolamine induced deficit in passive avoidance test in mice; assay: Single trial passive avoidance test, scopolamine induced deficit (in vivo); settings: po + scopolamine, % increase in TLT of 2nd trial from TLT of 1st trial
[4] = 0.5 h; 100 μg/1 ml of reaction mixture, incubated 30 min at 37° C., rat brain enzyme source; read-out: In Vitro %) (AChE inhibitory activity, % decrease change from control)

Row | SMILES | In Vivo (passive avoidance test, significance of TLT increase) [1] | inhibition at 100 µg/mL [2, 4] [%] | also measured
1 | CC(C)(O)[C@@H]1Cc2cc3ccc(=O)oc3cc2O1 (racemic) [(±) Marmesin] | Significant activity (P < 0.01) |  | In Vitro %) (AChE inhibitory activity, % decrease change from control) ([2]; 100 μg/1 ml of reaction mixture, incubated 30 min at 37° C., rat brain enzyme source): 23.91%
2 | CC(=O)Oc1ccc2c(C)cc(=O)oc2c1OC(C)=O [4-Methyl-7,8-diacetyloxycoumarin] | No significant activity | 24 | 
3 | Cc1cc(=O)oc2c(OCc3ccccc3)c(OCc3ccccc3)ccc12 [4-Methyl-7,8-dibenzyloxycoumarin] | No significant activity | 24.1 | 
4 | Cc1cc(=O)oc2c(O)c(O)ccc12 [4-Methyl-7,8-dihydroxycoumarin] | No significant activity | 14.1 | 
5 | COc1ccc2c(C)cc(=O)oc2c1OC [4-Methyl-7,8-dimethoxycoumarin] | No significant activity | 14.2 | 
6 | CC(=O)Oc1ccc2c(C)cc(=O)oc2c1 [4-Methyl-7-acetyloxycoumarin] | Significant activity (P < 0.01) | 23.9 | TLT on 2nd trial as compared to 1st trial after scopolamine [1]: significant increase in TLT on 2nd trial
7 | Cc1cc(=O)oc2cc(O)ccc12 [4-Methyl-7-hydroxycoumarin] | High significant activity | 17.4 | TLT on 2nd trial as compared to 1st trial after scopolamine [1]: significant increase in TLT on 2nd trial; effectiveness in passive avoidance test (in vivo), in words [1]: most effective; % Memory retention ([3]; AP20am samples 50 mg/kg): 376%
8 | COc1ccc2c(C)cc(=O)oc2c1 [4-Methyl-7-methoxycoumarin] | No significant activity | 48.9 | effectiveness in passive avoidance test (in vivo), in words [1]: effective
9 | CC(=O)Oc1ccc2ccc(=O)oc2c1 [7-Acetyloxycoumarin] | High significant activity | 39.1 | TLT on 2nd trial as compared to 1st trial after scopolamine [1]: significant increase in TLT on 2nd trial; effectiveness in passive avoidance test (in vivo), in words [1]: most effective; also recorded: effective; % Memory retention ([3]; AP20am samples 50 mg/kg): 321%
10 | C=CCOc1ccc2ccc(=O)oc2c1 [7-Allyloxycoumarin] | Significant activity (P < 0.05) |  | TLT on 2nd trial as compared to 1st trial after scopolamine [1]: significant increase in TLT on 2nd trial
11 | O=c1ccc2ccc(OCc3ccccc3)cc2o1 [7-Benzyloxycoumarin] | Significant activity |  | TLT on 2nd trial as compared to 1st trial after scopolamine [1]: significant increase in TLT on 2nd trial
12 | C#CC(C)(C)c1ccc2ccc(=O)oc2c1 [7-Dimethylpropargylcoumarin] | No significant activity |  | 
13 | CC(C)=CCc1cc2ccc(=O)oc2cc1O [7-Hydroxy-6-prenylcoumarin] | No significant activity |  | inhibition at 100 µg/mL ([2]; 0.5 h, read-out: In Vitro %) (AChE inhibitory activity, % decrease change from control)): 42.2%
14 | CC(C)=CCc1c(O)ccc2ccc(=O)oc12 [7-Hydroxy-8-prenylcoumarin] | No significant activity |  | 
15 | O=c1ccc2ccc(O)cc2o1 [7-Hydroxycoumarin] | No significant activity |  | 
16 | COc1ccc2ccc(=O)oc2c1 [7-Methoxycoumarin] | High significant activity | 25.2 | TLT on 2nd trial as compared to 1st trial after scopolamine [1]: significant increase in TLT on 2nd trial; effectiveness in passive avoidance test (in vivo), in words [1]: most effective; % Memory retention ([3]; AP20am samples 50 mg/kg): 295%
17 | CC(C)=CCOc1ccc2ccc(=O)oc2c1 [7-Prenyloxycoumarin] | No significant activity |  | 
18 | CC(C)(O)[C@@H]1Cc2c(ccc3ccc(=O)oc23)O1 [Columbianetin] | No significant activity | 13.9 | 
19 | CC1(C)CCc2cc3ccc(=O)oc3cc2O1 [Dihydroxanthyletin] | No significant activity | 37.8 | 
20 | COc1cc2c(cc1OC)C(=O)C(CC1CCN(Cc3ccccc3)CC1)C2 (centres unmarked) [Donepezil, reference compound] |  |  | % Memory retention ([3]; Standard drug Donepezil 10 mg/kg): 288%
21 | CC1(C)C=Cc2c(ccc3ccc(=O)oc23)O1 [Seselin] | No significant activity |  | 
